From ChEMBL document CHEMBL1821627, “Medicinal chemistry as a conduit for the modulation of quorum sensing” (J Med Chem, 2010) come the findings set out here.

Where a SMILES comes first, the peptide text is derived from it. Bridges are numbered along the chain shown (N, C = ends). [ ]: non-standard residue; d: D form. NMeF = CN[C@@H](Cc1ccccc1)C(=O)O; NMeL = CN[C@@H](CC(C)C)C(=O)O; NMeS = CN[C@@H](CO)C(=O)O; Dap = NC[C@H](N)C(=O)O; Ava = NCCCCC(=O)O; Mpa = O=C(O)CCS

System in one assay: not listed separately
The experiment in a line: Inhibition of Staphylococcus aureus Quorum sensing system AgrC-II activation after 60 to 90 minutes by beta-lactamase reporter assay.
Conditions: not given; call rule not given here
On the technique in general: Reporter assays use an easily measured gene product as a stand-in for the process of interest.
For the compound `CC(=O)N[C@H]1CSC(=O)[C@H](Cc2ccccc2)NC(=O)[C@H](CC(C)C)N(C)C(=O)[C@H](CO)NC(=O)[C@H](CO)NC1=O` (Ac-CSS[NMeL]F; thioester 1-C), the IC50 (usually the concentration that inhibits the measured activity by half) was “Not Active”. Still for that read-out and setting: for `CC(=O)N[C@H]1CSC(=O)[C@H](Cc2ccccc2)N(C)C(=O)[C@H](CC(C)C)NC(=O)[C@H](CO)NC(=O)[C@H](CO)NC1=O` (Ac-CSSL[NMeF]; thioester 1-C) the value was “Not Active”.

Still in this assay, the particulars now being: read-out: IC50.
With `CC(=O)N[C@H]1CNC(=O)[C@H](Cc2ccccc2)NC(=O)[C@H](CC(C)C)NC(=O)[C@H](CO)NC(=O)[C@H](CO)NC1=O` (Ac-[Dap]SSLF; lactam 1-C), the IC50 was determined as 167000 nM.

For the compound `CC(=O)N[C@H]1CSC(=O)[C@H](Cc2ccccc2)NC(=O)[C@H](CC(C)C)NC(=O)[C@H](CO)N(C)C(=O)[C@H](CO)NC1=O` (Ac-CS[NMeS]LF; thioester 1-C), the IC50 was found to be 1050 nM. Still for that read-out and setting: the result for `CC(C)C[C@@H]1NC(=O)[C@H](CO)NC(=O)[C@H](CO)NC(=O)CCSC(=O)[C@H](Cc2ccccc2)NC1=O` ([Mpa]SSLF; thioester 1-C) reads 47300 nM.

As to `CC(=O)N[C@H]1CSC(=O)[C@H](Cc2ccccc2)NC(=O)[C@H](CC(C)C)NC(=O)[C@H](CO)NC(=O)CNC1=O` (Ac-CGSLF; thioester 1-C), the IC50 worked out at 1160 nM. As for `CC[C@H](C)[C@@H]1NC(=O)[C@H](Cc2ccccc2)NC(=O)[C@H](C)NC(=O)[C@@H](NC(=O)[C@@H](NC(=O)[C@H](CO)NC(=O)[C@@H](N)Cc2ccc(O)cc2)[C@@H](C)O)CSC(=O)[C@H](CSC)NC1=O` (H-YSTCAFIC(Me); thioester 4-C), the IC50 came to 4 nM. Still for that read-out and setting: for `CC(=O)N[C@H]1CSC(=O)[C@H](Cc2ccccc2)NC(=O)[C@H](CC(C)C)NC(=O)[C@H](CO)NC(=O)[C@H](CO)N(C)C1=O` (Ac-C[NMeS]SLF; thioester 1-C) the value was 7880 nM; for `CC(=O)N[C@H]1CSC(=O)[C@H](Cc2ccccc2)NC(=O)[C@H](CC(C)C)NC(=O)CNC(=O)[C@H](CO)NC1=O` (Ac-CSGLF; thioester 1-C), 194 nM. On the same count and under the same terms, for `CC(=O)N[C@H]1CSC(=O)[C@H](Cc2ccccc2)NC(=O)[C@H](CC(C)C)NC(=O)CNC(=O)CNC1=O` (Ac-CGGLF; thioester 1-C) the value was 238 nM; for `CC(=O)N[C@H]1CSC(=O)[C@H](Cc2ccccc2)NC(=O)[C@H](CC(C)C)NC(=O)CCCCNC1=O` (Ac-C[Ava]LF; thioester 1-C), 507000 nM.

System in another assay: not listed separately
The experiment in a line: Inhibition of Staphylococcus aureus Quorum sensing system AgrC-I activation after 60 to 90 minutes by beta-lactamase reporter assay.
Conditions: not given
For the compound `CC(=O)N[C@H]1CSC(=O)[C@H](Cc2ccccc2)NC(=O)[C@H](CC(C)C)N(C)C(=O)[C@H](CO)NC(=O)[C@H](CO)NC1=O` (Ac-CSS[NMeL]F; thioester 1-C), the IC50 entry was “Not Active”. Same read-out and setting: the result for `CC(=O)N[C@H]1CSC(=O)[C@H](Cc2ccccc2)N(C)C(=O)[C@H](CC(C)C)NC(=O)[C@H](CO)NC(=O)[C@H](CO)NC1=O` (Ac-CSSL[NMeF]; thioester 1-C) reads “Not Active”.

The same assay, now with this note: read-out: IC50.
With `CC(=O)N[C@H]1CNC(=O)[C@H](Cc2ccccc2)NC(=O)[C@H](CC(C)C)NC(=O)[C@H](CO)NC(=O)[C@H](CO)NC1=O` (Ac-[Dap]SSLF; lactam 1-C), the IC50 came out at 1390 nM. The same measure, in the same setting: for `CC(=O)N[C@H]1CSC(=O)[C@H](Cc2ccccc2)NC(=O)[C@H](CC(C)C)NC(=O)[C@H](CO)N(C)C(=O)[C@H](CO)NC1=O` (Ac-CS[NMeS]LF; thioester 1-C) the value was 319 nM. The same measure, in the same setting: for `CC(C)C[C@@H]1NC(=O)[C@H](CO)NC(=O)[C@H](CO)NC(=O)CCSC(=O)[C@H](Cc2ccccc2)NC1=O` ([Mpa]SSLF; thioester 1-C) the value was 1680 nM; for `CC(=O)N[C@H]1CSC(=O)[C@H](Cc2ccccc2)NC(=O)[C@H](CC(C)C)NC(=O)[C@H](CO)NC(=O)CNC1=O` (Ac-CGSLF; thioester 1-C), 189 nM; for `CC[C@H](C)[C@@H]1NC(=O)[C@H](Cc2ccccc2)NC(=O)[C@H](C)NC(=O)[C@@H](NC(=O)[C@@H](NC(=O)[C@H](CO)NC(=O)[C@@H](N)Cc2ccc(O)cc2)[C@@H](C)O)CSC(=O)[C@H](CSC)NC1=O` (H-YSTCAFIC(Me); thioester 4-C), 21 nM. The same measure, in the same setting: the result for `CC(=O)N[C@H]1CSC(=O)[C@H](Cc2ccccc2)NC(=O)[C@H](CC(C)C)NC(=O)[C@H](CO)NC(=O)[C@H](CO)N(C)C1=O` (Ac-C[NMeS]SLF; thioester 1-C) reads 639 nM; that for `CC(=O)N[C@H]1CSC(=O)[C@H](Cc2ccccc2)NC(=O)[C@H](CC(C)C)NC(=O)CNC(=O)[C@H](CO)NC1=O` (Ac-CSGLF; thioester 1-C), 40 nM; that for `CC(=O)N[C@H]1CSC(=O)[C@H](Cc2ccccc2)NC(=O)[C@H](CC(C)C)NC(=O)CNC(=O)CNC1=O` (Ac-CGGLF; thioester 1-C), 77 nM. `CC(=O)N[C@H]1CSC(=O)[C@H](Cc2ccccc2)NC(=O)[C@H](CC(C)C)NC(=O)CCCCNC1=O` (Ac-C[Ava]LF; thioester 1-C): the IC50 amounted to 1140 nM.

The subject of the next assay is Chromobacterium violaceum. The experiment in a line: In vivo inhibition of violacein production in Chromobacterium violaceum. It is filed as functional, organism-based.
Conditions: not given
In turn, `O=C(CCCOc1ccc(Cl)cc1)NC1CCOC1=O` (stereo unspecified) showed an IC50 of 295 nM.

`Cc1cc(Cl)ccc1OCCCC(=O)NC1CCSC1=O` (stereo unspecified) returned an IC50 of 1200 nM.

With `O=C(CCCOc1ccc(Cl)cc1)NC1CCSC1=O` (stereo unspecified), the IC50 stood at 723 nM.

For the next assay, the target named is T1, Autoinducer 1 sensor kinase/phosphatase LuxN (Vibrio harveyi, UniProt P0C5S6).
T1 sequence (P0C5S6 whole entry): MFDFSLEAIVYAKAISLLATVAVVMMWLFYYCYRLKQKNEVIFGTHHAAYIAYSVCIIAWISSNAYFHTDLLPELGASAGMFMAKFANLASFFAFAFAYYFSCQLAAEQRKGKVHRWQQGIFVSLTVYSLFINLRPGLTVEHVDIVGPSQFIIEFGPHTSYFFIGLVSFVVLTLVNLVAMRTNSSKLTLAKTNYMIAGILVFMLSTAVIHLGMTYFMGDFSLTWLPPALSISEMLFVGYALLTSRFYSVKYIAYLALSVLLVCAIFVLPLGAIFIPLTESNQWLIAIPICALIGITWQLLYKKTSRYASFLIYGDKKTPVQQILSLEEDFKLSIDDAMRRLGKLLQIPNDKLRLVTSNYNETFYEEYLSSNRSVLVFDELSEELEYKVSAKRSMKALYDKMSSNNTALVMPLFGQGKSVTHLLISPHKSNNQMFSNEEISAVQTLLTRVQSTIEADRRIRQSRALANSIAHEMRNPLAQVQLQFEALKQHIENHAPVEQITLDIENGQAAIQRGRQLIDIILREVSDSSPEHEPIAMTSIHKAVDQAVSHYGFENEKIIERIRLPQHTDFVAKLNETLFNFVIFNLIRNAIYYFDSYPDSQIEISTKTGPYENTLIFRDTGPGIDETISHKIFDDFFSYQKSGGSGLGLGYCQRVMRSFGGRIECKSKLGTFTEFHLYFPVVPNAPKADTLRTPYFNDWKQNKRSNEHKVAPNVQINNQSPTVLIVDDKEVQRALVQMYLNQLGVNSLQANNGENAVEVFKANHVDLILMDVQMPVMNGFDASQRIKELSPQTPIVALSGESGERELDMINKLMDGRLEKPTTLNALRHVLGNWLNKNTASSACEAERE
The experiment in a line: Inhibition of LuxN-dependent bioluminescence in Vibrio harveyi.
Conditions: not given
`CC(C)OC(=O)CSc1nc2ccccc2[nH]1` showed an IC50 of 62300 nM. On the same count and under the same terms, the result for `COc1ccc(CNC(=O)C(NS(=O)(=O)c2ccc3nc(C)sc3c2)C(C)C)cc1` (stereo unspecified) reads 2900 nM; that for `O=C(c1ccc(Cl)cc1)c1ccc(S(=O)(=O)c2ccc(Cl)cc2)cc1`, 2600 nM.

On to `CC(=O)N1CCc2ccc(S(=O)(=O)NC(CC(C)C)C(=O)NCc3ccc(Cl)cc3)cc21` (stereo unspecified), for which the IC50 was determined as 2700 nM. The same measure, in the same setting: for `CC(C)(c1ccccc1)c1ccc(OCC(=O)NC2CCCC2)cc1` the value was 2400 nM.

System in a further assay: not listed separately
The experiment in a line: Induction of quorum sensing activity in Pseudomonas aeruginosa assessed as maximal induction of LasR-dependent yellow fluorescent protein emission by luminescence assay.
Conditions: not given
As to `Cc1cc(Br)cc(CNC(=O)c2ccccc2Cl)c1OC(=O)c1ccc(Cl)cc1Cl`, the EC50 (in general, the concentration needed to bring the measured effect to its halfway point) was determined as 920 nM. Still for that read-out and setting: the result for `O=C(Oc1c(Br)cc(Br)cc1CNC(=O)c1ccccc1[N+](=O)[O-])c1ccccc1Cl` reads 14 nM; that for `O=C(Oc1c(Br)cc(Br)cc1CNC(=O)c1ccccc1Cl)c1ccc(F)cc1`, 240 nM.

For the next assay, the target named is T2, Transcriptional activator protein LasR (Pseudomonas aeruginosa (strain ATCC 15692 / PAO1 / 1C / PRS 101 / LMG12228), UniProt P25084).
T2 sequence (P25084 whole entry): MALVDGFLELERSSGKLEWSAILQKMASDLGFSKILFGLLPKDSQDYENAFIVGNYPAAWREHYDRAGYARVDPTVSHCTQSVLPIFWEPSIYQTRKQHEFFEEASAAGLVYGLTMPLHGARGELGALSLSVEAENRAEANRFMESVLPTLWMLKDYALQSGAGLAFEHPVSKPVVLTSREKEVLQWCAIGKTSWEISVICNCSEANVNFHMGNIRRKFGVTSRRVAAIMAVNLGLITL
The experiment in a line: Antagonist activity at Pseudomonas aeruginosa LasR receptor assessed as inhibition of bioluminescence by reporter gene assay. It is filed as functional.
Conditions: not given
For the compound `O=C(CCCCCCCCCNC(=O)CBr)CC(=O)N[C@H]1CCOC1=O`, the IC50 was determined as 100000 nM. The same measure, in the same setting: the result for `O=C(CCCCCCCCCN=C=S)CC(=O)N[C@H]1CCOC1=O` reads 113000 nM; that for `O=C(CCCCCCCCCCN=C=S)CC(=O)N[C@H]1CCOC1=O`, 45200 nM. Take `O=C(CCCCCCCCN=C=S)CC(=O)N[C@H]1CCOC1=O`: the IC50 is 300000 nM.

A further assay addresses T3, Transcriptional activator protein LuxR (Aliivibrio fischeri, UniProt P12746).
T3 sequence (P12746 whole entry): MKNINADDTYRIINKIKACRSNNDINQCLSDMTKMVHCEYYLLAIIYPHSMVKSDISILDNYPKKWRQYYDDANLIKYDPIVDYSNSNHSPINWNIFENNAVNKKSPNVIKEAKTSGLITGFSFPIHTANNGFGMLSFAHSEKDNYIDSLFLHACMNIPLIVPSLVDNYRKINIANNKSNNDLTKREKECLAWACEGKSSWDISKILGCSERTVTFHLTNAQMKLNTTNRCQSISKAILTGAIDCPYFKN
The experiment in a line: Antagonist activity at Vibrio fischeri luxR receptor in presence of 5 uM 3-oxo-C6-HSL. It is filed as functional.
Conditions: not given
With `CCCCCCCC(=O)N[C@H]1CCOC1=O`, the IC50 was found to be 770 nM.

Consider `O=C(Cc1ccc(C(F)(F)F)cc1)N[C@H]1CCOC1=O`, for which the IC50 turned out to be 610 nM.

The target in another assay is T2, Transcriptional activator protein LasR. The experiment in a line: Antagonist activity at Pseudomonas aeruginosa LasR receptor expressed in Escherichia coli in presence of 7.5 nM natural auto-inducer 3-oxo-C12-HSL. It is filed as functional.
Conditions: not given
For `O=C(CCc1ccc(Br)cc1)N[C@H]1CCOC1=O`, the half-inhibitory concentration (IC50) stood at 340 nM. As to `O=C(Cc1ccc(I)cc1)N[C@H]1CCOC1=O`, the IC50 was found to be 1720 nM.
